From patent US11427615B2, “Peptide compound and application thereof, and composition containing peptide compound” (XDCEXPLORER (SHANGHAI) CO., LTD., priority 2017, dated 2022)
Non-standard residues stand in square brackets, D forms with d. Residues, ends and D or L forms follow the SMILES beside them. *: point of attachment. C18 diacid = O=C(O)CCCCCCCCCCCCCCCCC(=O)*; PEG8 = NCCOCCOCCOCCOCCOCCOCCOCCOCCC(=O)O; Arg(Me) = CNC(=N)NCCC[C@H](N)C(=O)O; Palmitoyl = CCCCCCCCCCCCCCCC(=O)*; Hyp = O=C(O)[C@@H]1C[C@@H](O)CN1; PEG4 = NCCOCCOCCOCCOCCC(=O)O; Lauroyl = CCCCCCCCCCCC(=O)*; Ac6c = NC1(C(=O)O)CCCCC1; AEEA = NCCOCCOCC(=O)O; azaGly = NNC(=O)O

Assays:
[1] = target: T1, human kiss1 receptor (GPR54) (Homo sapiens, UniProt Q969F8); experiment: Kiss1 receptor (GPR54) binding activity of agonists, FRET detection in NFAT-bla CHO-K1 cells; assay type: cell-based; settings: GPR54; measured according to the method of effect Embodiment 1; preliminary data; read-out: Preliminary measurement data (GPR54) EC50
T1 construct: host or cells: NFAT-bla CHO-K1 cells (Chinese hamster ovary), purchased recombinant cell line
T1 sequence (Q969F8 whole entry): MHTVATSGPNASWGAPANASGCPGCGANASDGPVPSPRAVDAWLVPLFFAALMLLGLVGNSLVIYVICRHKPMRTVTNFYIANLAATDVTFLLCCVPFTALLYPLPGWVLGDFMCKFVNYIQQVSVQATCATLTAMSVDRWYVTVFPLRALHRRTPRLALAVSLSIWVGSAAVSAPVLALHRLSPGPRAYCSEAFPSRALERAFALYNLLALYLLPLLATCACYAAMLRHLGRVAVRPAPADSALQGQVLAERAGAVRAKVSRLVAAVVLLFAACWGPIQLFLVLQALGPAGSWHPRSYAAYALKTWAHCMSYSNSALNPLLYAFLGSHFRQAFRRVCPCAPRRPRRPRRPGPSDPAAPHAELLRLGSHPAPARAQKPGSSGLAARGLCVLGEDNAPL

[2] = Plasma stability, LC-MS/MS; assay type: in vitro ADME; settings: rat plasma, 37° C., final concentration 500 ng/ml, time points 0 minutes, 1, 2 and 4 hours; calculated half-life; read-out: Rat plasma (T½ (h)) (converted)
Experimental: Effect Embodiment 2 Experimental Data on Plasma Stability of Some Compounds
1. Preparation of 50 mM Phosphate Buffer:
The 5.750 g Na2HPO4, 1.141 g NaH2PO4. and 4.095 g NaCl (Shanghai Titan) weighed was dissolved in 1000 mL ultrapure water and the pH was adjusted to 7.4 to give 50 mM phosphate buffer containing 70 mM NaCl. The prepared phosphoric acid buffer solution was stored in the refrigerator at 4° C. and was valid for one week.
2. Preparation of compound stock solution:
1). 5 mg/mL of test compound: 5 mg of compound was weighted and dissolved in 1 mL of DMSO.
2). 20 mM control: 2.728 mg of Fuka was dissolved in 0.5 mL of DMSO. 3.878 mg of benzalkonium bromide was dissolved in 0.5 mL of DMSO (Amresco).
3. Preparation of experimental plasma:
The frozen plasma (human: Shanghai wise chemistry; Rats and mice: Shanghai Sciple-Bikai; Dogs and monkeys: Suzhou Xishan Zhongke) were taken out of the −80° C. refrigerator, immediately placed in a 37° C. water bath, slightly shaken to melt it, then the thawed plasma was poured into a centrifuge tube, centrifuged at 3000 rpm for 8 min, and the supernatant was taken for experiments. The pH value of plasma was detected by a pH Meter & Sensor (METTLER TOLEDO). Only plasma with a pH value between 7.4 and 8 was used in the experiment. The plasma was placed on an ice bath for later use.
4. Preparation of administration solution:
1). 125 µg/ml test compound solution: 5 μL of 5 mg/mL test compound (see step 2) was added into 195 μL DMSO; 500 μM control solution: 20 mM control stock solution (see step 2) was added to 195 μL DMSO.
2). 0.5% BSA phosphate buffer solution: 0.05 g BSA was added to 10 mL phosphate buffer solution (see step 1);
3). 5 µg/ml of test compound administration solution: 40 μL of 125 μg/mL of test compound solution was added into 960 μL 0.5% BSA phosphate buffer solution, stirred and mixed evenly, and the administration solution was preheated in a 37° C. water bath for 5 minutes.
20 μM reference substance administration solution: 40 μL of 500 μM reference substance administration solution was added into 960 μL 0.5% BSA phosphate buffer solution, stirred and mixed evenly, and the administration solution was preheated in a 37° C. water bath for 5 minutes.
5. 10 μL of 5 μg/mL of the test compound and 20 μM of the control substance administration solution were respectively added to the wells set at different time points (0 minutes, 1 hour, 2 hours and 4 hours) on the 96-well plate, and the number of duplicate samples was 3.
6. 500 μL of ACN (IS) containing 5% FA was added to the well set at 0 minute hour, then 90 μL of plasma was added, after mixing, sealing film was pasted and placed at 4° C. (number of duplicate samples was 3).
7. 90 μL of plasma was added to the wells with set time points of 1 hour, 2 hours and 4 hours respectively, the number of duplicate samples was 3, and timing was started (the final concentration of the test compound was 500 ng/ml; The control was 2 μM).
9. All samples (0 minutes, 1 hour, 2 hours and 4 hours) at different time points on a 96-well plate were shaken for 10 minutes at 600 rpm/min on an oscillator (MTS 2/4, IKA), and then the samples were centrifuged for 15 minutes at 5594×g in a centrifuge (Multifuge×3R, thermo Fisher).
10. 150 μL of supernatant was taken from the centrifuged sample and sent to LC-MS/MS for analysis (conventional polypeptide LC-MS/MS analysis method).

EC50 [1] [nM]	half-life at 500 ng/ml [2] [h]	Compound
0.05	166	CNC(=N)NCCC[C@H](NC(=O)[C@H](CC(C)C)NC(=O)NNC(=O)[C@H](Cc1ccccc1)NC(=O)[C@@H](NC(=O)[C@H](CC(N)=O)NC(=O)[C@@H]1C[C@@H](O)CN1C(=O)[C@@H](Cc1ccc(O)cc1)NC(=O)COCCOCCNC(=O)COCCOCCNC(=O)CCCCCCCCCCCCCCCCC(=O)O)[C@@H](C)O)C(=O)N[C@@H](Cc1c[nH]c2ccccc12)C(N)=O [YA-273, C 18 diacid-OEG-OEG-D-Tyr-Hyp-Asn-Thr-Phe-azaGly-Leu-Arg(Me)-Trp-NH2] ({C18 diacid-AEEA-AEEA}-[dY][Hyp]NTF[azaGly]L[Arg(Me)]W-NH2)
0.029	13	CCCCCCCCCCCCCCCC(=O)NCCOCCOCCOCCOCCOCCOCCOCCOCCC(=O)NCC(=O)NCC(=O)N[C@H](Cc1ccc(O)cc1)C(=O)N1C[C@H](O)C[C@H]1C(=O)N[C@@H](CC(N)=O)C(=O)N[C@H](C(=O)N[C@@H](Cc1ccccc1)C(=O)NC1(C(=O)N[C@@H](CC(C)C)C(=O)N[C@@H](CCCNC(=N)NC)C(=O)N[C@@H](Cc2c[nH]c3ccccc23)C(N)=O)CCCCC1)[C@@H](C)O [YA-264, Palm-PEG 8-Gly-Gly-D-Tyr-Hyp-Asn-Thr-Phe-A6C-Leu-Arg(Me)-Trp-NH2] ({Palmitoyl-PEG8}-GG[dY][Hyp]NTF[Ac6c]L[Arg(Me)]W-NH2)
0.004	6.67	CNC(=N)NCCC[C@H](NC(=O)[C@H](CC(C)C)NC(=O)NNC(=O)[C@H](Cc1ccccc1)NC(=O)[C@@H](NC(=O)[C@H](CC(N)=O)NC(=O)[C@@H]1C[C@@H](O)CN1C(=O)[C@@H](Cc1ccc(O)cc1)NC(=O)CCOCCOCCOCCOCCNC(C)=O)[C@@H](C)O)C(=O)N[C@@H](Cc1c[nH]c2ccccc12)C(N)=O [YA-150, Ac-PEG4-(D-Tyr)-Hyp-Asn-Thr-Phe-azaGly-Leu-Arg(Me)-Trp-NH2] (Ac-[PEG4][dY][Hyp]NTF[azaGly]L[Arg(Me)]W-NH2)
0.011	2.73	CCCCCCCCCCCC(=O)NCCOCCOCCOCCOCCC(=O)NCCOCCOCCOCCOCCC(=O)N[C@H](Cc1ccc(O)cc1)C(=O)N1C[C@H](O)C[C@H]1C(=O)N[C@@H](CC(N)=O)C(=O)N[C@H](C(=O)N[C@@H](Cc1ccccc1)C(=O)NNC(=O)N[C@@H](CC(C)C)C(=O)N[C@@H](CCCNC(=N)NC)C(=O)N[C@@H](Cc1c[nH]c2ccccc12)C(N)=O)[C@@H](C)O [YA-296, Dodecanoyl-PEG4-PEG4-D-Tyr-Hyp-Asn-Thr-Phe-azaGly-Leu-Arg(Me)-Trp-NH2] ({Lauroyl-PEG4-PEG4}-[dY][Hyp]NTF[azaGly]L[Arg(Me)]W-NH2)
